Values quoted from earlier work as cited in US20070219127A1, “CYCLOSPORIN A COMPOSITIONS” (priority 2006, published 2007).

| Structure (SMILES) | systemically administered elimination half-life |
| --- | --- |
| FC1(F)C(F)(F)C(F)(F)C2(F)C(F)(C1(F)F)C(F)(F)C(F)(F)C1(F)C(F)(F)C(F)(F)C(F)(F)C(F)(F)C12F (centres unmarked) [PPP, perfluoroperhydrophenanthrene] | about 7 days |
| FC1(F)C(F)(F)C(F)(F)C2(F)C(F)(F)C(F)(F)C(F)(F)C(F)(F)C2(F)C1(F)F (centres unmarked) [PFD, Perfluoro (decahydronaphthalene)] | about 7 days |
